Source: patent publication US10716305B2, “Anti-bacterial compositions” (priority 2015, dated 2020)
Values after ≈ are worked out from the molar mass of the structure shown. Read-outs that look alike come from different tables or passages of the source.

Legend:
[1] = test system: MatTek EpiDerm tissue (Reconstructed Human Epidermis); assay: MatTek EpiDerm Skin Irritation Test (SIT); format: cell-based; conditions: 60 minutes treatment
Experimental: This test was conducted to predict dermal irritation potential of test articles in the context of identification and classification of skin irritation hazard according to the European Union (EU) classification ([…] or no label), United Nations Globally Harmonized System of Classification and Labeling of Chemicals (GHS) classification system (Category 2 and non-irritants), and OECD Guideline for the Testing of Chemicals No. 439-In Vitro Skin Irritation: Reconstructed Human Epidermis Test Method. This study was designed based on MatTek protocol in vitro EpiDermTM Skin Irritation Test. MatTek EpiDermTM tissue samples were treated in triplicate with the test composition, Negative Control and Positive Control for 60 minutes. Following treatment and subsequent incubation time, the viability of the tissues was determined using Methyl thiazole tetrazolium (MTT) uptake and reduction. The absorbance of each sample was measured at 540 nm. The viability was then expressed as a percent of control values. If the mean tissue viability was ≤50%, the test material was classified as an irritant; if the mean tissue viability was […].

bovine corneas = assay: OECD Bovine Corneal Opacity and Permeability Test (BCOP); conditions: 0.75 ml, 10-minute exposure
Experimental: This protocol is based on the methodology described in the current OECD Guideline for the Testing of Chemicals #437.
Following a 10-minute exposure for each group of dosed corneas, opacity measurements and sodium fluorescein permeability were determined.

[2] = test system: BALB/C 3T3 mouse fibroblast cell line; assay: 3T3 Neutral Red Uptake Phototoxicity Assay; format: cell-based; conditions: for EC50: Mus musculus
Experimental: The cytotoxicity and phototoxicity of the test composition to 3T3 cells (in the presence or absence of UVA light) was assessed by Neutral Red Uptake. The 3T3 Neutral Red Uptake Phototoxicity Assay (3T3 NRU PT), based on the OECD Guideline for Testing of Chemicals: […] An Ultraviolet-Visible light (UV-VIS) spectral scan was performed on a solution containing 0.1% of the test composition in a solution of 1% DMSO/HBSS. […] For both the range-finding screen and the definitive test of the 3T3 assay, BALB/C 3T3 cells were seeded in the central 60 wells of duplicate 96-well microplates and maintained in culture for approximately 24 hours. The two 96-well plates were then preincubated with eight different concentrations of the test composition for approximately one hour. After preincubation, one plate was irradiated with a dose of 5 J/cm^2 Solar Simulated Light (SSL, containing wavelengths in the UVA and visible regions with >99% of UVB blocked out), while the duplicate plate was kept in the dark (No SSL). After UV irradiation, the treatment medium was replaced with culture medium and, after approximately 24 hours, cell viability was determined by neutral red uptake for three hours. A range finding screen was performed to determine the acceptable concentrations for the definitive test. MS Excel® was used to calculate the EC50 values and Photo-Irritant Factor (PIF) for the test article and the Chlorpromazine (CPZ) positive control in both the Screen and the Definitive test.

MRSA = assay: Comparative efficacy study, oral gavage, MRSA induction IP; format: in vivo, BALB/C mice; conditions: oral treatment for 7 days, Composition A 100 mg/kg, antibiotics per RX dose converted to mice
Experimental: Efficacy Study in comparison to leading anti-MRSA antibiotics was conducted in BALB/C mice.
7a. Administration Route: Oral Gavage
Group 1 (6 mice males)—MRSA Induction IP no treatment
Group 2 (6 mice males)—MRSA Induction IP—oral treatment for 7 days
Group 3 (6 mice males)—No Induction—oral treatment for 7 days
For the antibiotics the dose was as per RX prescription converted to mice Body Weights.
1—Erythromycin 250 mg/pt b.i.d. equals 2.1 mg/20 g mouse/day 300 mg total/12 mice
2—Clindamycin 150 mg/pt b.i.d. equals 1.25 mg/20 g mouse/day 200 mg total/12 mice
3—Vancomycine 250 mg/pt b.i.d. equals 2.1 mg/20 g mouse/day 300 mg total/12 mice

## CCCCCCCCCCCCOS(=O)(=O)[O-].[Na+] [5% Sodium Dodecyl Sulfate, Sodium Dodecyl Sulfate]
[1]
  Irritancy Classification: Irritant (mean tissue viability was ≤50%, the test material was classified as an irritant)
[1]; MTT, percent of control
  Mean Tissue Viability: 3.1%

## CCO [100% Ethanol, Ethanol]
Bovine corneas
  Corrected Mean Opacity Score: 22.66
  In Vitro Irritation Score (IVIS): 32.34

## CN(C)CCCN1c2ccccc2Sc2ccc(Cl)cc21 [CPZ, Chlorpromazine]
[2]; BALB/c3T3, light or radiation study, 5 J/cm^2 Solar Simulated Light, range tested 0.22-3.16 μg/ml, read-out: EC50 + SSL
  EC50: 0.4 µg/mL
[2]; BALB/c3T3, dark, range tested 6.81-100 μg/ml, read-out: EC50 No SSL
  EC50: 18.8 µg/mL (≈ 59 µM)
[2]; definitive test
  PIF (Photo-Irritant Factor): 47.0

## CC[C@H]1OC(=O)[C@H](C)[C@@H](O[C@H]2C[C@@](C)(OC)[C@@H](O)[C@H](C)O2)[C@H](C)[C@@H](O[C@@H]2O[C@H](C)C[C@H](N(C)C)[C@H]2O)[C@](C)(O)C[C@@H](C)C(=O)[C@H](C)[C@@H](O)[C@]1(C)O [Erythromycin]
MRSA
  blood cell culture: two colonies

## CN[C@H](CC(C)C)C(=O)N[C@H]1C(=O)N[C@@H](CC(N)=O)C(=O)N[C@H]2C(=O)N[C@H]3C(=O)N[C@H](C(=O)N[C@H](C(=O)O)c4cc(O)cc(O)c4-c4cc3ccc4O)[C@H](O)c3ccc(c(Cl)c3)Oc3cc2cc(c3O[C@@H]2O[C@H](CO)[C@@H](O)[C@H](O)[C@H]2O[C@H]2C[C@](C)(N)[C@H](O)[C@H](C)O2)Oc2ccc(cc2Cl)[C@H]1O [vancomycin, Vancomycin]
MRSA
  blood cell culture: one colony
